Measurements: article PMC11868595, “Safety, pharmacokinetics and efficacy of HA121-28 in patients with advanced solid tumors and RET fusion-positive non-small-cell lung cancer: a multicenter, open-label, single-arm phase 1/2 trial” (Signal Transduction and Targeted Therapy, 2025)

System: patients with advanced solid tumors
Experiment: Phase 1 trial: adverse events (CTCAE), DLT and MTD
Format: in vivo, human
Details: Phase 1, 450 mg (N=79)
Protocol: The phase 1 trial was a two-part, multicenter, open-label, nonrandomized study to evaluate the safety and preliminary efficacy of HA121-28.
Safety, tolerability, and PK of HA121-28 was assessed in dose-escalation part. The single-patient accelerated titration was carried out at 25 mg and 50 mg; then, the dose escalation proceeded according to a “3 + 3” design in dose range of 100 to 800 mg. Escalation to a higher dose level was considered by the satisfactory review of safety results from the previous lower dose during the first cycle.
The dose-expansion part aims to further access the safety and efficacy of HA121-28 at the selected doses based on data from the dose-escalation part. The RP2D was determined by investigators in view of a thorough review of safety, PK, and efficacy results.
In phase 1 trial, during the dose-escalation part, patients first administered HA121-28 in a single ascending dose under the fasted state, then followed up for seven days. Then, patients received ascending doses of HA121-28 (q.d.) on a 21-day on and 7-day off treatment scheme for a 28-day cycle. For patients deemed beneficial from the treatment by investigators, treatment could remain until disease progression, or they discontinued from the study. In the dose-expansion part of phase 1, as well as phase 2, patients received HA121-28 (q.d.) at the selected doses on a 21-day on and 7-day off treatment scheme until disease progression, or they discontinued from the study.
Treatment-emergent adverse events (TEAEs) were documented during the entire study period. The predefined adverse event of special interest (AESI) was ≥ grade 3 prolonged QT interval. Tumor imaging was performed using contrast-enhanced computed tomography or magnetic resonance imaging at screening, Day 28 of the first cycle, then approximately every eight weeks till the end of the study for phase 1; in phase 2, imaging was scheduled at screening, and every eight weeks during the first 40 weeks, followed by every 12 weeks for the rest of the study period. RECIST 1.1 was used by the independent review committee or investigators for assessment of tumor response. After the original assessment, a repeated assessment was required around four weeks later to confirm a complete or partial response.
The primary endpoints of phase 1 were to investigate the MTD, dose-limiting toxicities, and the incidence and severity of TEAEs. Each TEAE was graded according to the Common Terminology Criteria for Adverse Events (CTCAE, version 5.0) and coded by Medical Dictionary for Regulatory Activities (MedDRA, version 21.0). The secondary endpoints included calculating PK parameters, assessing the ORR and DCR at the recommended dose by investigators as per RECIST 1.1. The exploratory endpoint was PFS.
If grade 2 or higher toxicity related to the study drug occurs in Groups 1 and 2 (as determined by the investigator), dose escalation will proceed using a 3+3 design starting from that dose level. If no DLT is observed at the 800 mg/d dose level after dose escalation, a meeting of investigators will be convened to decide whether to proceed with further dose escalation based on the available PK data, safety, and tolerability information.
5. Definition of DLT and MTD
The following events related to the study drug (including those that are definitely related, highly likely to be related, and possibly related):
(1) Grade 4 hematologic toxicity or grade 3 neutropenia accompanied by a fever of 38.5℃ or higher, or grade 3 thrombocytopenia accompanied by severe bleeding.
(2) Patients who discontinued the medication for more than 7 days due to unresolved toxicity reactions or who discontinued the medication more than twice due to toxicity […]
(3) In the context of supportive treatment, diarrhea of grade 2 lasting more than 7 days, or grade 3 diarrhea lasting more than 3 days.

SMILES: COc1cc2c(Nc3ccc(Br)cc3F)ncnc2cc1OCCCCN(C)C.Cl.Cl [HA121-28, N-(4-bromo-2-fluorophenyl)-7-(4-(dimethylamino)butoxy)-6-methoxy quinazolin-4-amine dihydrochloride]
- Serious TEAE: Acute pancreatitis: 0 No. (%)
- Serious TEAE: Anal abscess: 0 No. (%)
- Serious TEAE: Any: 15 (19.0) No. (%)
- Serious TEAE: Aortic intramural hematoma: 0 No. (%)
- Serious TEAE: Arrhythmia: 1 (1.3) No. (%)
- Serious TEAE: Blood bilirubin increased: 0 No. (%)
- Serious TEAE: Blood creatinine increased: 0 No. (%)
- Serious TEAE: COVID-19: 0 No. (%)
- Serious TEAE: Cardiac tamponade: 1 (1.3) No. (%)
- Serious TEAE: Coronary artery atherosclerosis: 0 No. (%)
- Serious TEAE: Death: 1 (1.3) No. (%)
- Serious TEAE: Diarrhea: 0 No. (%)
- Serious TEAE: Drug eruption: 0 No. (%)
- Serious TEAE: Dyspnea: 0 No. (%)
- Serious TEAE: Embolism: 0 No. (%)
- Serious TEAE: Erythema multiforme: 0 No. (%)
- Serious TEAE: Headache: 0 No. (%)
- Serious TEAE: Hemoptysis: 2 (2.5) No. (%)
- Serious TEAE: Hydronephrosis: 0 No. (%)
- Serious TEAE: Hypertension: 1 (1.3) No. (%)
- Serious TEAE: Hypoalbuminemia: 0 No. (%)
- Serious TEAE: Intestinal obstruction: 1 (1.3) No. (%)
- Serious TEAE: Intra-abdominal fluid collection: 0 No. (%)
- Serious TEAE: Intracranial tumor hemorrhage: 0 No. (%)
- Serious TEAE: Liver injury: 0 No. (%)
- Serious TEAE: Lung adenocarcinoma: 0 No. (%)
- Serious TEAE: Malignant neoplasm progression: 1 (1.3) No. (%)
- Serious TEAE: Multiple organ dysfunction syndrome: 1 (1.3) No. (%)
- Serious TEAE: Nausea: 0 No. (%)
- Serious TEAE: Nephrolithiasis: 0 No. (%)
- Serious TEAE: Platelet counts decreased: 0 No. (%)
- Serious TEAE: Pleural effusion: 1 (1.3) No. (%)
- Serious TEAE: Pneumonia: 0 No. (%)
- Serious TEAE: Pneumonitis: 1 (1.3) No. (%)
- Serious TEAE: Prolonged QT interval: 0 No. (%)
- Serious TEAE: Pulmonary embolism: 0 No. (%)
- Serious TEAE: Pyrexia: 0 No. (%)
- Serious TEAE: Rash: 1 (1.3) No. (%)
- Serious TEAE: Rectal hemorrhage: 1 (1.3) No. (%)
- Serious TEAE: Respiratory failure: 0 No. (%)
- Serious TEAE: Seizure: 2 (2.5) No. (%)
- Serious TEAE: Septic shock: 0 No. (%)
- Serious TEAE: Sudden cardiac arrest: 0 No. (%)
- Serious TEAE: Sudden death: 0 No. (%)
- Serious TEAE: Upper respiratory tract infection: 1 (1.3) No. (%)
- Serious TEAE: Ventricular tachycardia: 0 No. (%)
- Serious TEAE: Vomiting: 0 No. (%)
- Serious TEAE: Weight loss: 0 No. (%)
- Serious TRAE: ALT increased: 0 No. (%)
- Serious TRAE: AST increased: 0 No. (%)
- Serious TRAE: Abdominal Pain: 0 No. (%)
- Serious TRAE: Abdominal distension: 0 No. (%)
- Serious TRAE: Acute cholecystitis: 0 No. (%)
- Serious TRAE: Acute pancreatitis: 0 No. (%)
- Serious TRAE: Anal abscess: 0 No. (%)
- Serious TRAE: Any: 9 (11.4) No. (%)
- Serious TRAE: Aortic intramural hematoma: 0 No. (%)
